Experimental data as given in patent publication US12258328B2, “6-membered heteroaryl-containing aminopyridine compounds as EGFR inhibitors” (YUHAN CORPORATION, priority 2021, dated 2025).
Read-outs that look alike come from different tables or passages of the source.

Tests used:
[1] = target: EGFR del19/C797S (Homo sapiens, UniProt P00533, C797S/DEL746-750); experiment: Biochemical EGFR kinase assay (Lance Ultra TR-FRET), double mutant del19/C797S
How it was run: (§1)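 Kinase activity is measured by TR-FRET phosphopeptide detection. Compounds span 0.003 μM to 10 μM; the 1 h reaction at room temperature is quenched with EDTA, then labelled antibody (2 nM) is incubated 60 min before reading.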

[2] = target: EGFR del19/T790M/C797S (Homo sapiens, UniProt P00533, C797S/DEL746-750/T790M); experiment: Biochemical EGFR kinase assay (Lance Ultra TR-FRET), triple mutant del19/T790M/C797S
Sequence of EGFR del19/T790M/C797S (P00533 with tags, fused parts or gaps DEL746-750/T790M/C797S): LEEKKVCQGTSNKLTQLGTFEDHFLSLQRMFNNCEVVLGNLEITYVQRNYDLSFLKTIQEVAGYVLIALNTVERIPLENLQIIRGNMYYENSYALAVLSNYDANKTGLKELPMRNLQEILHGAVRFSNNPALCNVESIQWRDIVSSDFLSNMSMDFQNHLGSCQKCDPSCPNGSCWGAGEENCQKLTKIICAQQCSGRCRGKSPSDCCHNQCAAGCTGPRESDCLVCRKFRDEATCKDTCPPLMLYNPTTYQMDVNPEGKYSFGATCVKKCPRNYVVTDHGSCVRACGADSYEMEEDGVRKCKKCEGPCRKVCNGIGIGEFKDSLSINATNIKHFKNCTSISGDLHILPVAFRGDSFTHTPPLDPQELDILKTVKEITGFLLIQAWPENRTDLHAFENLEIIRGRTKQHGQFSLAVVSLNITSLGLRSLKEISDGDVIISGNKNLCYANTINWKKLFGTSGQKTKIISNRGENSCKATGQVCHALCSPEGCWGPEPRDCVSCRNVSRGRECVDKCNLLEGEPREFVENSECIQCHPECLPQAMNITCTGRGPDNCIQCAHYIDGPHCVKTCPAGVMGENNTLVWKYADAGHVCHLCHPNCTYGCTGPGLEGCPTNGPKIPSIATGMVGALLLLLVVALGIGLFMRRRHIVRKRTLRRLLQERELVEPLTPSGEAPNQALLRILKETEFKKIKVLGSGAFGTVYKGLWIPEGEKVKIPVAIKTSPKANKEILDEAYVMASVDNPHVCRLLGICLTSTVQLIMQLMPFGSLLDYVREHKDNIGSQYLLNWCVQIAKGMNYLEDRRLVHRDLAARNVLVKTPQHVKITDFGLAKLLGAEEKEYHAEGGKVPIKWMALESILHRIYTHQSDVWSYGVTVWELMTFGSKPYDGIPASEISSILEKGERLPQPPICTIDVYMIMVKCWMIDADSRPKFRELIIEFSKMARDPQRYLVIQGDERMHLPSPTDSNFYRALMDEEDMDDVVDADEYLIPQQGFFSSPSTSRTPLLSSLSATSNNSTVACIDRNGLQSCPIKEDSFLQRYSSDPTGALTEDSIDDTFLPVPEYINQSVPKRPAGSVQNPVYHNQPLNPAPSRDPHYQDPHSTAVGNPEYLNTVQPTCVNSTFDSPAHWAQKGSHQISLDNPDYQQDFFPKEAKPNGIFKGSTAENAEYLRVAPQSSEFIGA
How it was run: as §1

[3] = target: EGFR wildtype (Homo sapiens, UniProt P00533); experiment: Biochemical EGFR kinase assay (Lance Ultra TR-FRET), wildtype
Sequence of EGFR wildtype (P00533 25-1210): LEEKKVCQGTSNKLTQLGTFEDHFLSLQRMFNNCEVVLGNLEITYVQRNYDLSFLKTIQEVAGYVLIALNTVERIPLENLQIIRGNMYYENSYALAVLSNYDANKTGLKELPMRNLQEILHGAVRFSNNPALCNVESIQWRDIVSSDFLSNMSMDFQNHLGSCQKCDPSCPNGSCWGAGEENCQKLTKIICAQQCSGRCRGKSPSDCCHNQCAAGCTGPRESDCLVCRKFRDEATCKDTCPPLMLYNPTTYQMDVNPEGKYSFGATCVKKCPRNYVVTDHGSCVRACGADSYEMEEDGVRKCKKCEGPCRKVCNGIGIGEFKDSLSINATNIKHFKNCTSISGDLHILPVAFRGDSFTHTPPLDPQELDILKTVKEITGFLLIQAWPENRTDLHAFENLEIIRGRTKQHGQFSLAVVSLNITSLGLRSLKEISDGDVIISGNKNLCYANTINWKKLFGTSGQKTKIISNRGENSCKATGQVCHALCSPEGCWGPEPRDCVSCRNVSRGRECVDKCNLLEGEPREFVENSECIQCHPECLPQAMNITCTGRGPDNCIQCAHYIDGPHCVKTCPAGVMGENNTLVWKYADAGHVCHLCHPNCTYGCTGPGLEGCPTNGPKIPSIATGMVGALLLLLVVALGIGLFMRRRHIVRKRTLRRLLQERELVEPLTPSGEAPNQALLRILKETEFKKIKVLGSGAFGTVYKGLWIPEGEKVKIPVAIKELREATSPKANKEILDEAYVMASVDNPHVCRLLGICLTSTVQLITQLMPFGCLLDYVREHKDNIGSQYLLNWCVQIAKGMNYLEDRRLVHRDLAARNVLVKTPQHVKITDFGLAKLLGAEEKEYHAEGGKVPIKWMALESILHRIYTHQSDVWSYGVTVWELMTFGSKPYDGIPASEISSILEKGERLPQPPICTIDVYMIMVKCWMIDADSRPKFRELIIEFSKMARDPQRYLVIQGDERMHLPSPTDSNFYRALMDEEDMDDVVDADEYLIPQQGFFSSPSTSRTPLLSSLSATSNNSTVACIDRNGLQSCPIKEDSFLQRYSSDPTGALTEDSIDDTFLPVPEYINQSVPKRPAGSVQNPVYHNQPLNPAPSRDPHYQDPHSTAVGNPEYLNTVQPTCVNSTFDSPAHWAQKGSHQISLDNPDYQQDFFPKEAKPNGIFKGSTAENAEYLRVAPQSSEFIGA
How it was run: as §1

[4] = target: EGFR L858R/T790M/C797S (Homo sapiens, UniProt P00533, C797S/L858R/T790M); experiment: Biochemical EGFR kinase assay (Lance Ultra TR-FRET), triple mutant L858R/T790M/C797S
How it was run: as §1

[5] = target: EGFR L858R/C797S (Homo sapiens, UniProt P00533, C797S/L858R); experiment: Biochemical EGFR kinase assay (Lance Ultra TR-FRET), double mutant L858R/C797S
Sequence of EGFR L858R/C797S (P00533 25-1210 C797S/L858R): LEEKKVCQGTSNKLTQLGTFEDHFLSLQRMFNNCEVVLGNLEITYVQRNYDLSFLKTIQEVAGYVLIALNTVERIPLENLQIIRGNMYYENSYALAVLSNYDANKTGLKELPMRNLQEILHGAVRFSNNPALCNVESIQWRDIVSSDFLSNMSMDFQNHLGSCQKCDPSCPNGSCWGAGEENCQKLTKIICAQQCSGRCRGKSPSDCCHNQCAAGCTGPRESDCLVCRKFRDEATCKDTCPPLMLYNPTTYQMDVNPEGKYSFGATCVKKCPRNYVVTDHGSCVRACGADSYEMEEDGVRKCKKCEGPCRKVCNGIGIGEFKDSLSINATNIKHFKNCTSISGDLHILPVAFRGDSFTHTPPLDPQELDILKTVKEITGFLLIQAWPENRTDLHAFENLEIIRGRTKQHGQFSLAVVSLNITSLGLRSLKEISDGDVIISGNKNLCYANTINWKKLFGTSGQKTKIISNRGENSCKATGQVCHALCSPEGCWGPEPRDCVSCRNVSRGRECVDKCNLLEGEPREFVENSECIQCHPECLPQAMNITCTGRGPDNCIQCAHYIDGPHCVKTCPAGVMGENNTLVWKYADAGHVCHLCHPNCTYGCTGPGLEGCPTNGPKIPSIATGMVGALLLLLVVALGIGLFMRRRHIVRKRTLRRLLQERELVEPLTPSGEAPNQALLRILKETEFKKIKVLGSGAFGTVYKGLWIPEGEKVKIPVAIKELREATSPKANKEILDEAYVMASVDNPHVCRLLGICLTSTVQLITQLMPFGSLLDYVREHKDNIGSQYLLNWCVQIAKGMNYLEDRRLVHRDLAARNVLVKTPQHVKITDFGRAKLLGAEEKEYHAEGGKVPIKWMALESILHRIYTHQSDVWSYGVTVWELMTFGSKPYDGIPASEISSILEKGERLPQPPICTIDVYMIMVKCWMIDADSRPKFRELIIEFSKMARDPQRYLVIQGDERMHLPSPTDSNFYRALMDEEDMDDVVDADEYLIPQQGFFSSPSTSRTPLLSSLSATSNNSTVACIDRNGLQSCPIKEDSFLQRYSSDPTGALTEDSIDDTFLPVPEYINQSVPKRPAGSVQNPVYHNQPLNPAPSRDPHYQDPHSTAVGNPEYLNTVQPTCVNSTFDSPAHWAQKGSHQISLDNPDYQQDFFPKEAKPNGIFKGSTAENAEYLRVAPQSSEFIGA
How it was run: as §1

[6] = ATP at Km, read-out: IC50 del19/C797S, Km ATP
[7] = ATP at Km, read-out: IC50 del19/T790M/C797S, Km ATP
[8] = ATP at Km, read-out: IC50 WT, Km ATP
[9] = ATP at Km, read-out: IC50 L858R/T790M/C797S, Km ATP
[10] = IC50 L858R/T790M/C797S, 100 μM ATP
[11] = ATP at Km, read-out: IC50 L858R/C797S, Km ATP
[12] = IC50 del19/T790M/C797S, 100 μM ATP

Sequence of EGFR del19/C797S (P00533 with tags, fused parts or gaps DEL746-750/C797S): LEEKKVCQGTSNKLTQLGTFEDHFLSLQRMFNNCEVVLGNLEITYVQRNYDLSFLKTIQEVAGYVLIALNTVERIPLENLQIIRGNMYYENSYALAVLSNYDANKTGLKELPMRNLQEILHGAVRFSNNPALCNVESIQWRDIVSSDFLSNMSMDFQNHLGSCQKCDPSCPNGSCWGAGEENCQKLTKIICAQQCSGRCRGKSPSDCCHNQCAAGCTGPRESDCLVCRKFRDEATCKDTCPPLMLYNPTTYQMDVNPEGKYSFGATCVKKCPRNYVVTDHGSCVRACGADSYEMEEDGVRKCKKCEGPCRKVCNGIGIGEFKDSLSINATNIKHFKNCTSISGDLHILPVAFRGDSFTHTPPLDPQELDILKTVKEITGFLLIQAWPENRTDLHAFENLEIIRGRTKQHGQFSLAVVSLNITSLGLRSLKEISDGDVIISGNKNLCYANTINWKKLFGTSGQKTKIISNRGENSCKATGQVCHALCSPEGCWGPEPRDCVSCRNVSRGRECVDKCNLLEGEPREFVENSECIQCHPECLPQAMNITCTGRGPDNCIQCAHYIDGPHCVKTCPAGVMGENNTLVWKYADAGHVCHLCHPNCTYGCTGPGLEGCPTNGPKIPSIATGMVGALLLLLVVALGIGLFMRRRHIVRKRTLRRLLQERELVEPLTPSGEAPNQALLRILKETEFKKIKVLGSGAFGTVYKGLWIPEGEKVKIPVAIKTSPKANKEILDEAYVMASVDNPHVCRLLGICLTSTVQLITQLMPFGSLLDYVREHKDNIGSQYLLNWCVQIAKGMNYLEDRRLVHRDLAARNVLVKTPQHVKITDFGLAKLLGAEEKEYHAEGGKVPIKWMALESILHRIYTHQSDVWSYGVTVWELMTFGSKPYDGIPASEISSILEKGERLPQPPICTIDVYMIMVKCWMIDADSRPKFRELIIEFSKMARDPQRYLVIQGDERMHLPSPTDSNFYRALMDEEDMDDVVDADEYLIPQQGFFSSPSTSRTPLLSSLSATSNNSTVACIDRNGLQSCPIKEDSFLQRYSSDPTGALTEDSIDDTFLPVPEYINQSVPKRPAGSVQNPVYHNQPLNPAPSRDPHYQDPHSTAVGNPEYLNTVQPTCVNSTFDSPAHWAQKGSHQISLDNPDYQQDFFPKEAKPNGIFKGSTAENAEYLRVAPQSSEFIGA

| Compound | IC50 [1, 6] [nM] | IC50 [2, 7] [nM] | IC50 [3, 8] [nM] | IC50 ([3]; IC50 WT, 100 μM ATP) [nM] | IC50 [4, 9] [nM] | IC50 [4, 10] [nM] | IC50 [5, 11] [nM] | IC50 ([5]; IC50 L858R/C797S, 100 μM ATP) [nM] | IC50 ([1]; IC50 del19/C797S, 100 μM ATP) [nM] | IC50 [2, 12] [nM] |
| --- | --- | --- | --- | --- | --- | --- | --- | --- | --- | --- |
| CC(C)(F)c1ccc(-c2cnc(Nc3ccnc(-c4cnn(S(=O)(=O)C5CC5)c4)n3)cc2N[C@H]2CC[C@@H](CO)CC2)nc1 [Example 235, ((1s,4s)-4-((6′-((2-(1-(Cyclopropylsulfonyl)-1H-pyrazol-4-yl)pyrimidin-4-yl)amino)-5-(2-fluoropropan-2-yl)-[2,3′-bipyridin]-4′-yl)amino)cyclohexyl)methanol] | 3.1 | 1 | 4.9 | 692 | 0.8 | 2.7 | 1 | 8.1 | – | – |
| CC(C)(F)c1ccc(-c2cnc(Nc3ccnc(-c4cnn(S(=O)(=O)C5CC5)c4)n3)cc2N[C@H]2CC[C@@H](C(C)(C)O)CC2)nc1 [Example 236, 2-((1s,4s)-4-((6′-((2-(1-(Cyclopropylsulfonyl)-1H-pyrazol-4-yl)pyrimidin-4-yl)amino)-5-(2-fluoropropan-2-yl)-[2,3′-bipyridin]-4′-yl)amino)cyclohexyl)propan-2-ol] | 9.1 | 2.5 | 41.8 | > 10000 | 1.9 | 6.4 | 3 | 177 | 24.4 | 9.1 |
| CC(F)(F)c1ccc(-c2cnc(Nc3ccnc(-c4cnn(S(=O)(=O)C5CC5)c4)n3)cc2N[C@H]2CC[C@@H](CO)CC2)nc1 [Example 241, ((1s,4s)-4-((6′-((2-(1-(Cyclopropylsulfonyl)-1H-pyrazol-4-yl)pyrimidin-4-yl)amino)-5-(1,1-difluoroethyl)-[2,3′-bipyridin]-4′-yl)amino)cyclohexyl)methanol] | 6.3 | 2.3 | 20.3 | 2640 | 1.8 | 6.9 | 2.9 | 22 | 12.9 | 4.4 |
| CC(F)(F)c1ccc(-c2cnc(Nc3ccnc(-c4cnn(S(=O)(=O)C5CC5)c4)n3)cc2N[C@H]2CC[C@@H](C(C)(C)O)CC2)nc1 [Example 242, 2-((1s,4s)-4-((6′-((2-(1-(Cyclopropylsulfonyl)-1H-pyrazol-4-yl)pyrimidin-4-yl)amino)-5-(1,1-difluoroethyl)-[2,3′-bipyridin]-4′-yl)amino)cyclohexyl)propan-2-ol] | 15.2 | 4.8 | 53.5 | > 10000 | 2.5 | 11.3 | 10.7 | 179 | 18.7 | 9.7 |
| O=S(=O)(C1CC1)n1cc(-c2nccc(Nc3cc(N[C@H]4CC[C@@H](CO)CC4)c(-c4ccc(C(F)(F)CO)cn4)cn3)n2)cn1 [Example 244, 2-(6′-((2-(1-(Cyclopropylsulfonyl)-1H-pyrazol-4-yl)pyrimidin-4-yl)amino)-4′-(((1s,4s)-4-(hydroxymethyl)cyclohexyl)amino)-[2,3′-bipyridin]-5-yl)-2,2-difluoroethan-1-ol] | 0.6 | 0.9 | 1.8 | 1420 | 0.2 | 0.3 | 0.4 | 0.9 | 0.9 | 1.7 |
| CC(C)(O)[C@H]1CC[C@@H](Nc2cc(Nc3ccnc(-c4cnn(S(=O)(=O)C5CC5)c4)n3)ncc2-c2cccc(CC(F)(F)F)n2)CC1 [Example 247, 2-((1s,4s)-4-((6′-((2-(1-(Cyclopropylsulfonyl)-1H-pyrazol-4-yl)pyrimidin-4-yl)amino)-6-(2,2,2-trifluoroethyl)-[2,3′-bipyridin]-4′-yl)amino)cyclohexyl)propan-2-ol] | – | – | 111 | > 10000 | – | 2.6 | – | 51.1 | 80.6 | 14.7 |
| CN(C)C[C@H]1CC[C@@H](Nc2cc(Nc3ccnc(-c4cnn(S(=O)(=O)C5CC5)c4)n3)ncc2-c2cccc(CC(F)(F)F)n2)CC1 [Example 248, N^6′-(2-(1-(Cyclopropylsulfonyl)-1H-pyrazol-4-yl)pyrimidin-4-yl)-N^4′-((1s,4s)-4-((dimethylamino)methyl)cyclohexyl)-6-(2,2,2-trifluoroethyl)-[2,3′-bipyridine]-4′,6′-diamine] | 2 | 0.4 | 4.6 | 7620 | 0.1 | 0.3 | 1.8 | 9.7 | 5 | 0.4 |
| CC(C)Nc1cc(Nc2ccnc(-c3cnn(S(=O)(=O)C4CC4)c3)n2)ncc1-c1ccc(OC2CCN(C)CC2)cn1 [Example 249, N^6′-(2-(1-(Cyclopropylsulfonyl)-1H-pyrazol-4-yl)pyrimidin-4-yl)-N^4′-isopropyl-5-((1-methylpiperidin-4-yl)oxy)-[2,3′-bipyridine]-4′,6′-diamine] | 0.4 | 0.5 | 2.8 | – | 0.2 | – | 0.2 | – | – | – |
| CN1CCC(Oc2ccc(-c3cnc(Nc4ccnc(-c5cnn(S(=O)(=O)C6CC6)c5)n4)cc3N[C@H]3CCC[C@H](CO)C3)nc2)CC1 [Example 253, ((1S,3S)-3-((6′-((2-(1-(Cyclopropylsulfonyl)-1H-pyrazol-4-yl)pyrimidin-4-yl)amino)-5-((1-methylpiperidin-4-yl)oxy)-[2,3′-bipyridin]-4′-yl)amino)cyclohexyl)methanol] | 0.4 | 0.7 | 1 | – | 0.4 | – | 0.2 | – | – | – |
| CN1CCC(Oc2ccc(-c3cnc(Nc4ccnc(-c5cnn(S(=O)(=O)C6CC6)c5)n4)cc3NC3CCC(F)CC3)nc2)CC1 (stereo not drawn) [Example 254, N^6′-(2-(1-(Cyclopropylsulfonyl)-1H-pyrazol-4-yl)pyrimidin-4-yl)-N^4′-(4-fluorocyclohexyl)-5-((1-methylpiperidin-4-yl)oxy)-[2,3′-bipyridine]-4′,6′-diamine] | 0.1 | 0.04 | 0.7 | – | 0.02 | – | 0.4 | – | – | – |

Further molecules by falling IC50 [3, 8], results first:

| IC50 [1, 6] [nM] | IC50 [2, 7] [nM] | IC50 [3, 8] [nM] | IC50 ([3]; IC50 WT, 100 μM ATP) [nM] | IC50 [4, 9] [nM] | IC50 [4, 10] [nM] | IC50 [5, 11] [nM] | IC50 ([5]; IC50 L858R/C797S, 100 μM ATP) [nM] | IC50 ([1]; IC50 del19/C797S, 100 μM ATP) [nM] | IC50 [2, 12] [nM] | Compound |
| --- | --- | --- | --- | --- | --- | --- | --- | --- | --- | --- |
| 134 | 19.8 | 733 | – | 5.9 | – | 15.4 | – | – | – | CC(C)(F)c1ccc(-c2cnc(Nc3ccnc(-c4cnn(S(=O)(=O)C5CC5)c4)n3)cc2NC2CCC(F)(F)CC2)nc1 [Example 240, N^6′-(2-(1-(Cyclopropylsulfonyl)-1H-pyrazol-4-yl)pyrimidin-4-yl)-N^4′-(4,4-difluorocyclohexyl)-5-(2-fluoropropan-2-yl)-[2,3′-bipyridine]-4′,6′-diamine] |
| 95.1 | 28.4 | 317 | – | 9.2 | – | 18.7 | – | – | – | CC(C)(F)c1ccc(-c2cnc(Nc3ccnc(-c4cnn(S(=O)(=O)C5CC5)c4)n3)cc2N[C@H]2CC[C@@H](F)CC2)nc1 [Example 238, N^6′-(2-(1-(Cyclopropylsulfonyl)-1H-pyrazol-4-yl)pyrimidin-4-yl)-N^4′-((1s,4s)-4-fluorocyclohexyl)-5-(2-fluoropropan-2-yl)-[2,3′-bipyridine]-4′,6′-diamine] |
| 72.7 | 15.1 | 216 | – | 3.9 | – | 31.6 | – | – | – | CC(C)(F)c1ccc(-c2cnc(Nc3ccnc(-c4cnn(S(=O)(=O)C5CC5)c4)n3)cc2NC2CCC(F)CC2)nc1 (stereo not drawn) [Example 239, N^6′-(2-(1-(Cyclopropylsulfonyl)-1H-pyrazol-4-yl)pyrimidin-4-yl)-N^4′-(4-fluorocyclohexyl)-5-(2-fluoropropan-2-yl)-[2,3′-bipyridine]-4′,6′-diamine] |
| 6.9 | 3 | 42 | > 10000 | 0.4 | 1.1 | 12.4 | 45.2 | 21.1 | 7.2 | O=S(=O)(C1CC1)n1cc(-c2nccc(Nc3cc(N[C@H]4CC[C@@H](CO)CC4)c(-c4cccc(CC(F)(F)F)n4)cn3)n2)cn1 [Example 246, ((1s,4s)-4-((6′-((2-(1-(Cyclopropylsulfonyl)-1H-pyrazol-4-yl)pyrimidin-4-yl)amino)-6-(2,2,2-trifluoroethyl)-[2,3′-bipyridin]-4′-yl)amino)cyclohexyl)methanol] |
| 0.4 | 0.4 | 0.3 | – | 0.2 | – | 0.4 | – | – | – | CN1CCC(Oc2ccc(-c3cnc(Nc4ccnc(-c5cnn(S(=O)(=O)C6CC6)c5)n4)cc3N[C@H]3CC[C@@](C)(O)CC3)nc2)CC1 [Example 250, (1s,4s)-4-((6′-((2-(1-(Cyclopropylsulfonyl)-1H-pyrazol-4-yl)pyrimidin-4-yl)amino)-5-((1-methylpiperidin-4-yl)oxy)-[2,3′-bipyridin]-4′-yl)amino)-1-methylcyclohexan-1-ol] |
| 0.2 | 0.5 | 0.2 | – | 0.1 | – | 0.3 | – | – | – | CN1CCC(Oc2ccc(-c3cnc(Nc4ccnc(-c5cnn(S(=O)(=O)C6CC6)c5)n4)cc3N[C@H]3CC[C@@H](CO)CC3)nc2)CC1 [Example 251, ((1s,4s)-4-((6′-((2-(1-(Cyclopropylsulfonyl)-1H-pyrazol-4-yl)pyrimidin-4-yl)amino)-5-((1-methylpiperidin-4-yl)oxy)-[2,3′-bipyridin]-4′-yl)amino)cyclohexyl)methanol] |
